# The source made the active and inactive calls. No cut-off for these calls is given here.
# How the values were obtained:
# [1] = biological target: T1, Glucagon-like peptide 1 receptor (Homo sapiens, UniProt P43220); assay: Agonist activity human GLP-1R stably expressed in HEK293 cells assessed as increase in intracellular cAMP level incubated for 30 mins by multiplate reader analysis; format: functional, cell-based
# Mus musculus [2] = assay: Antidiabetic activity in hGLP1R-knock in mouse model assessed as reduction in blood glucose level at 3 mg/kg, ip pretreated with compound for 15 mins followed glucose addition and measured after 30 to 120 mins by OGTT analysis; format: functional, organism-based; conditions: time 45-135 min
# Mus musculus [3] = assay: Antidiabetic activity in hGLP1R-knock in mouse model assessed as reduction in blood glucose level at 3 mg/kg, ip pretreated with compound for 15 mins followed glucose addition and measured after 120 mins by OGTT analysis; format: functional, organism-based; conditions: time 135.0 min
# Pancreatic islet = assay: Induction of insulin secretion in mouse Pancreatic islet cells expressing hGLP1R at 10 nM measured for 2 hrs by HTRF analysis; format: functional, cell-based
# [4] = biological target: T1, Glucagon-like peptide 1 receptor; assay: Agonist activity at GLP-1R (unknown origin) transfected in HEK293 cells assessed as beta-arrestin1 recruitment incubated for 5 mins by Envision multiplate reader analysis; format: functional, cell-based
# [5] = biological target: T1, Glucagon-like peptide 1 receptor; assay: Agonist activity at GLP-1R (unknown origin) transfected in HEK293 cells assessed as beta-arrestin2 recruitment incubated for 5 mins by Envision multiplate reader analysis; format: functional, cell-based
# [6] = biological target: T2, Gastric inhibitory polypeptide receptor (Homo sapiens) (UniProt P48546); assay: Agonist activity human GIPR stably expressed in HEK293 cells assessed as […] in intracellular cAMP level up to 100 uM incubated for 30 mins by multiplate reader analysis; format: functional, cell-based
# T2 sequence (whole entry): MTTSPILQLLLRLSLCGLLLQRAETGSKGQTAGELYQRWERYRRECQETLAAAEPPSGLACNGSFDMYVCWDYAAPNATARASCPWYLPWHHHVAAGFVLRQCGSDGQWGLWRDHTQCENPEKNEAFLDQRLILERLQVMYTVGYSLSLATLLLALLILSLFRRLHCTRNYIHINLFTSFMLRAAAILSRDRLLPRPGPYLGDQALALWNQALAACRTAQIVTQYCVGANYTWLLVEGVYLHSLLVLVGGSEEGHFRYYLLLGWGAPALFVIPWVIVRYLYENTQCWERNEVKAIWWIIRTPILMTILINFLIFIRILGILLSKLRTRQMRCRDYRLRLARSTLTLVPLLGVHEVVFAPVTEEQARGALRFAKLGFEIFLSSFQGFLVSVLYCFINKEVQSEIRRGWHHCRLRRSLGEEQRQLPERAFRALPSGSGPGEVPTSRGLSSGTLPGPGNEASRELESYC
# [7] = biological target: T3, Glucagon-like peptide 2 receptor (Homo sapiens) (UniProt O95838); assay: Agonist activity human GLP-2R stably expressed in HEK293 cells assessed as […] in intracellular cAMP level up to 100 uM incubated for 30 mins by multiplate reader analysis; format: functional, cell-based
# T3 sequence (whole entry): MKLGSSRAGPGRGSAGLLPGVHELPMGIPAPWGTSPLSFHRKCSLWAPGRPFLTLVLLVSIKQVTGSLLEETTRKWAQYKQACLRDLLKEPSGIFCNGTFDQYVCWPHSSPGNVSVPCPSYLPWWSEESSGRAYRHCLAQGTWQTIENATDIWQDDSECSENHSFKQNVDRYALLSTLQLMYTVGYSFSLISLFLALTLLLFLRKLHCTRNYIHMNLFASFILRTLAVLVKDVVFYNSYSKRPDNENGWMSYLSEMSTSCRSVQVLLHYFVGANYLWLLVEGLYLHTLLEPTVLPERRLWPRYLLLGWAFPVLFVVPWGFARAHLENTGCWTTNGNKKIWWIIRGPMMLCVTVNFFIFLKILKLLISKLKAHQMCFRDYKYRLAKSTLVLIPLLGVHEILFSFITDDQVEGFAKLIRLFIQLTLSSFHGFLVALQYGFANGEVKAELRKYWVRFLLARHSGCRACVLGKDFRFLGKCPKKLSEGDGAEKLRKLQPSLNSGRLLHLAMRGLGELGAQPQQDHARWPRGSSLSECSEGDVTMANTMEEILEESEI
# Mus musculus [8] = assay: Antidiabetic activity in hGLP1R-knock in mouse model assessed as reduction in blood glucose AUC (0 to 120 mins) at 3 mg/kg, ip pretreated with compound for 15 mins followed glucose addition and measured after 120 mins by OGTT analysis; format: functional; parameters: scale not given: the % may be the effect or the level left; conditions: time 135 min, 2.25 h
# [9] = biological target: Glucagon receptor (Homo sapiens) (UniProt P47871); assay: Agonist activity human GCGR stably expressed in HEK293 cells assessed as […] in intracellular cAMP level up to 100 uM incubated for 30 mins by multiplate reader analysis; format: functional, cell-based
# Sequence of Glucagon receptor (Homo sapiens) (P47871 whole entry): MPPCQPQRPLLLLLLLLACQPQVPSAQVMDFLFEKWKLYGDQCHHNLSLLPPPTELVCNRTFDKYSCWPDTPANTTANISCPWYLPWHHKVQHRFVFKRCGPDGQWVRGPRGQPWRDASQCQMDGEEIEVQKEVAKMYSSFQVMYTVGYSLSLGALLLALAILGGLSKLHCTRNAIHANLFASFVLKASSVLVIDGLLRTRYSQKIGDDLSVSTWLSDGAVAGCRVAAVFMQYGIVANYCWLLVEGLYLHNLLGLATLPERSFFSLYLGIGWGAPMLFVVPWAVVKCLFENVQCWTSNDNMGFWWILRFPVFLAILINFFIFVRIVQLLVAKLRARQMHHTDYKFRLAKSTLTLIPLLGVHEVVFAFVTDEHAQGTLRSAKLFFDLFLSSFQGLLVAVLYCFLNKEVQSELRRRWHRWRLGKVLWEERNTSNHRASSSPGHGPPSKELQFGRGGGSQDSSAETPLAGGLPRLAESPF
# T1 sequence (P43220 whole entry): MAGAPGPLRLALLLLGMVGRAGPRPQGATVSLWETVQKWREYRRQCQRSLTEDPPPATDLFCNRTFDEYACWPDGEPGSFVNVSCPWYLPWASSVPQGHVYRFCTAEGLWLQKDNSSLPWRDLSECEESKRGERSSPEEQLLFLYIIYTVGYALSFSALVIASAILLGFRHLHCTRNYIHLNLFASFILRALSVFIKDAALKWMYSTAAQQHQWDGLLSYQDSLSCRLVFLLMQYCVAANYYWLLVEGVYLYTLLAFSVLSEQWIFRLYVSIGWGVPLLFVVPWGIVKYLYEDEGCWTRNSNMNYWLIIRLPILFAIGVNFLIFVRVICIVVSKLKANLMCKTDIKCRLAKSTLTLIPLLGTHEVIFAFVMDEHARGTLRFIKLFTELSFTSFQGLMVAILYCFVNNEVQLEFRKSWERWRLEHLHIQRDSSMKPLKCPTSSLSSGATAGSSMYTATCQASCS
SMILES,EC50 [1],also measured
N=C(N)CSc1nnc(-c2ccc3c(c2)nc(CN2CCC(c4cccc(OCc5ccc(Cl)cc5F)n4)CC2)n3C[C@@H]2CCO2)[nH]1,2.8 nM,–
Fc1cc(Cl)ccc1COc1cccc(C2CCN(Cc3nc4cc(-c5nnc(SCC6CC6)[nH]5)ccc4n3C[C@@H]3CCO3)CC2)n1,50 nM,–
N#Cc1ccc(COc2cccc(C3CCN(Cc4nc5ccc(C(=O)O)cc5n4C[C@@H]4CCO4)CC3)n2)c(F)c1,–,Activity (Mus musculus [2]): Active; Activity (Mus musculus [3]): Active; Activity (Pancreatic islet): Active
Fc1cc(Cl)ccc1COc1cccc(C2CCN(Cc3nc4cc(-c5nnc(SCc6ncc[nH]6)[nH]5)ccc4n3C[C@@H]3CCO3)CC2)n1,2.5 nM,–
COCCSc1nnc(-c2ccc3c(c2)nc(CN2CCC(c4cccc(OCc5ccc(Cl)cc5F)n4)CC2)n3C[C@@H]2CCO2)[nH]1,3.4 nM,–
CN(C)c1nnc(-c2ccc3c(c2)nc(CN2CCC(c4cccc(OCc5ccc(Cl)cc5F)n4)CC2)n3C[C@@H]2CCO2)[nH]1,6.8 nM,–
CSc1nnc(-c2ccc3c(c2)nc(CN2CCC(c4cccc(OCc5ccc(Cl)cc5F)n4)CC2)n3C[C@@H]2CCO2)n1C,8.5 nM,–
O=C(O)CSc1nnc(-c2ccc3c(c2)nc(CN2CCC(c4cccc(OCc5ccc(Cl)cc5F)n4)CC2)n3C[C@@H]2CCO2)[nH]1,1 nM,–
CC(C)Sc1nnc(-c2ccc3c(c2)nc(CN2CCC(c4cccc(OCc5ccc(Cl)cc5F)n4)CC2)n3C[C@@H]2CCO2)[nH]1,5.2 nM,–
OCCCCSc1nnc(-c2ccc3c(c2)nc(CN2CCC(c4cccc(OCc5ccc(Cl)cc5F)n4)CC2)n3C[C@@H]2CCO2)[nH]1,4 nM,–
CCSc1nnc(-c2ccc3c(c2)nc(CN2CCC(c4cccc(OCc5ccc(Cl)cc5F)n4)CC2)n3C[C@@H]2CCO2)[nH]1,1.1 nM,–
CC(C)CSc1nnc(-c2ccc3c(c2)nc(CN2CCC(c4cccc(OCc5ccc(Cl)cc5F)n4)CC2)n3C[C@@H]2CCO2)[nH]1,22 nM,–
COc1nnc(-c2ccc3c(c2)nc(CN2CCC(c4cccc(OCc5ccc(Cl)cc5F)n4)CC2)n3C[C@@H]2CCO2)[nH]1,0.88 nM,–

# More lines, main results first:
EC50 [1],SMILES,also measured
0.52 nM,N=C(CSc1nnc(-c2ccc3c(c2)nc(CN2CCC(c4cccc(OCc5ccc(Cl)cc5F)n4)CC2)n3C[C@@H]2CCO2)[nH]1)NO,–
0.35 nM,NC(=O)CSc1nnc(-c2ccc3c(c2)nc(CN2CCC(c4cccc(OCc5ccc(Cl)cc5F)n4)CC2)n3C[C@@H]2CCO2)[nH]1,–
0.11 nM,NC(=O)NCCSc1nnc(-c2ccc3c(c2)nc(CN2CCC(c4cccc(OCc5ccc(Cl)cc5F)n4)CC2)n3C[C@@H]2CCO2)[nH]1,EC50 [4]: 364 nM; EC50 [5]: 349 nM
0.66 nM,CC(=O)CSc1nnc(-c2ccc3c(c2)nc(CN2CCC(c4cccc(OCc5ccc(Cl)cc5F)n4)CC2)n3C[C@@H]2CCO2)[nH]1,–
0.67 nM,N#CCSc1nnc(-c2ccc3c(c2)nc(CN2CCC(c4cccc(OCc5ccc(Cl)cc5F)n4)CC2)n3C[C@@H]2CCO2)[nH]1,–
0.67 nM,CSc1nnc(-c2ccc3c(c2)nc(CN2CCC(c4cccc(OCc5ccc(Cl)cc5F)n4)CC2)n3C[C@@H]2CCO2)[nH]1,–
0.62 nM,NC(=O)CCCCSc1nnc(-c2ccc3c(c2)nc(CN2CCC(c4cccc(OCc5ccc(Cl)cc5F)n4)CC2)n3C[C@@H]2CCO2)[nH]1,–
0.48 nM,OCCCSc1nnc(-c2ccc3c(c2)nc(CN2CCC(c4cccc(OCc5ccc(Cl)cc5F)n4)CC2)n3C[C@@H]2CCO2)[nH]1,–
0.59 nM,NC(=O)CCSc1nnc(-c2ccc3c(c2)nc(CN2CCC(c4cccc(OCc5ccc(Cl)cc5F)n4)CC2)n3C[C@@H]2CCO2)[nH]1,–
0.75 nM,CCc1nnc(-c2ccc3c(c2)nc(CN2CCC(c4cccc(OCc5ccc(Cl)cc5F)n4)CC2)n3C[C@@H]2CCO2)[nH]1,–
0.065 nM,OCCSc1nnc(-c2ccc3c(c2)nc(CN2CCC(c4cccc(OCc5ccc(Cl)cc5F)n4)CC2)n3C[C@@H]2CCO2)[nH]1,Activity [6]: inactive; Activity (Mus musculus [2]): Active; Activity [7]: inactive; Activity (Mus musculus [3]): Active; Activity (Pancreatic islet): Active; EC50 [4]: 936 nM; Activity (Mus musculus [8]): 50%; EC50 [5]: 581 nM; Activity [9]: inactive
0.46 nM,Fc1cc(Cl)ccc1COc1cccc(C2CCN(Cc3nc4cc(-c5nnc(C(F)(F)F)[nH]5)ccc4n3C[C@@H]3CCO3)CC2)n1,–
0.1 nM,NC(=O)CCCSc1nnc(-c2ccc3c(c2)nc(CN2CCC(c4cccc(OCc5ccc(Cl)cc5F)n4)CC2)n3C[C@@H]2CCO2)[nH]1,EC50 [4]: 566 nM; EC50 [5]: 322 nM
0.38 nM,O=C1NCC(CSc2nnc(-c3ccc4c(c3)nc(CN3CCC(c5cccc(OCc6ccc(Cl)cc6F)n5)CC3)n4C[C@@H]3CCO3)[nH]2)O1 (stereo partly drawn),–
0.42 nM,NCCSc1nnc(-c2ccc3c(c2)nc(CN2CCC(c4cccc(OCc5ccc(Cl)cc5F)n4)CC2)n3C[C@@H]2CCO2)[nH]1,–
